Patent publication US20170044152A1, “COMPOUNDS THAT MODULATE INTRACELLULAR CALCIUM” (CalciMedica, Inc., priority 2012, published 2017)

Each molecule was assayed on JR251 (assay: JR251 IC50 (Table v)). Conditions: not given.
Type: cell-based

IC50 [nM]	SMILES
1210	C=Cn1nc(-c2nccs2)cc1-c1ccc(NC(=O)c2c(F)cccc2F)s1 [Compound 5, (2,6-difluorophenyl)-N-[5-(3-(1,3-thiazol-2-yl)-1-vinylpyrazol-5-yl](2-thienyl)] carboxamide]

Each molecule was assayed against T1, Orai1/STIM1 (Homo sapiens, UniProt Q96D31) (assay: Fluorescence-based assay of store-operated calcium entry in Orai1/STIM1 stable cells). Conditions: HEK-293 cells stably expressing human STIM1 and Orai1; Peak-Basal fluo-4 signal; Table iv; read-out: Orai1/STIM1 (IC50, μmol).
T1 construct: c-myc (C); expressed in transfected cells; host or cells: HEK-293 cells stably overexpressing human STIM1, stably transfected with pcDNA3.1-Orai1-cmyc
T1 sequence (Q96D31 whole entry): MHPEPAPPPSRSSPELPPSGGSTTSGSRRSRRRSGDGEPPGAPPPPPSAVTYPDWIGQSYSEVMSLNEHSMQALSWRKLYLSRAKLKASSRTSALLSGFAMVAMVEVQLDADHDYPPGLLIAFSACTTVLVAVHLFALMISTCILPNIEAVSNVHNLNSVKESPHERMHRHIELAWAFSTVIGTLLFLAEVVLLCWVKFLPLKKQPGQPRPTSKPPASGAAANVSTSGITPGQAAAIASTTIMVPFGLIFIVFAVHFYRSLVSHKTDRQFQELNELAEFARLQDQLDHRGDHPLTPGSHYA
Type: cell-based
Experimental: A. Fluorescence-based Assay of Store-Operated Calcium Entry in Orai1/STIM1 Stable Cells.
Cells stably expressing recombinant human STIM1 and Orai1 are generated by transfecting a human Orai1 expression plasmid (pcDNA3.1-Orai1-cmyc) into HEK-293 cells stably overexpressing human ST1M1 (Roos et al. 2005 JCB 169(3): 435-445). Colonies of cells stably expressing both STIM1 and Orai1 proteins are selected and then subcloned by limiting dilution. Cells were cultured at 37° C./6% CO2 in complete medium with 10% FBS and appropriate selection markers.
The day prior to performing the assay Orai1/STIM1 stable cells are plated in 50 μL of complete medium at 90-95% confluence in a 384 well plate. Cells are grown at 37° C./6% CO2 overnight. […] The initial baseline fluorescence signal is then measured with a FLIPR^384 (Molecular Devices) plate reader. Calcium entry is initiated by adding 5 μl of 10× CaCl2 (10 mM) in HBSS, and changes in cellular fluorescence are measured with the FLIPR^384 plate reader. In each well, the magnitude of the fluorescence signal as a result of calcium entry into the cell is determined by calculating the difference between the peak fluorescence signal measured after calcium addition and the initial baseline fluorescence signal (designated Peak-Basal). […]

IC50 [nM]	SMILES
600 to 1200	Cc1cccc(F)c1C(=O)Nc1ccc(-c2cc(-c3ccccc3F)nn2C)s1 [Compound 23]

The molecules below were run on RBL-2H3 cells (assay: Fluorescence-based assay of store-operated calcium entry in RBL-2H3 cells). Conditions: Rattus norvegicus, Table v, read-out: IC50 (nM) RBL.
Type: cell-based
Experimental: B. Fluorescence-based Assay of Store-Operated Calcium Entry in RBL-2H3 Cells.
RBL-2H3 cells are obtained from ATCC and maintained in complete medium with 10% FBS at 37° C./6% CO2.
The day prior to performing the assay, RBL-2H3 cells are plated in 50 μL of complete medium in a 384 well plate. Cells are grown at 37° C./6% CO2 overnight and grow to 50-60% confluence by the next day. On the assay day, 1.5 μM Fluo-4-AM dye (Invitrogen) in complete medium is added and incubated for 1 hour at RT. Cells are washed twice in Ca^2+-free HBSS buffer and 35 μL Ca^2|-free HBSS buffer is added to each well. 10 μL of a test compound prepared in a Ca^2+-free HBSS solution at […] of the desired concentration is added to a well and incubated for 5 minutes at RT. 10 μL of thapsigargin prepared in a Ca^2+-free HBSS solution at 5.5× of the desired concentration (5.5 uM) is added to each well and incubated for an additional 25 minutes. The initial baseline fluorescence signal is measured with a FLIPR^384 (Molecular Devices) plate reader. 5 μL of 12× calcium in HBSS (12 mM) is added and changes in cellular fluorescence arc measured with the FLIPR^384 plate reader. In each well, the change in the fluorescent signal as a function of time due to calcium entry into the cell is determined by calculating the difference between the fluorescent signal measured 7 seconds after calcium addition and the initial baseline fluorescence signal at time zero (t=0). This parameter is designated Upslope. The IC50 value is calculated as the concentration at which 50% of the Upslope is inhibited.

IC50 [nM]	SMILES
106	C=Cn1nc(-c2nccs2)cc1-c1ccc(NC(=O)c2c(F)cccc2F)s1 [Compound 5, (2,6-difluorophenyl)-N-[5-(3-(1,3-thiazol-2-yl)-1-vinylpyrazol-5-yl](2-thienyl)] carboxamide]

Same assay, conditions: Rattus norvegicus, thapsigargin, Upslope of fluo-4 signal, Table iii, read-out: RBL-2H3 (IC50, μmol)

IC50 [nM]	SMILES
< 600	Cc1oc(C(F)(F)F)nc1-c1ccc(NC(=O)c2cccc(F)c2C)nc1 [Compound 19, 3-fluoro-2-methyl-N-(5-(5-methyl-2-(trifluoromethyl)oxazol-4-yl)pyridin-2-yl)benzamide]
< 600	Cc1oc(C(F)(F)F)nc1-c1ccc(NC(=O)c2c(F)cncc2F)nc1 [Compound 17, 3,5-difluoro-N-(5-(5-methyl-2-(trifluoromethyl)oxazol-4-yl)pyridin-2-yl)isonicotinamide]
< 600	CCc1oc(C(F)(F)F)nc1-c1ccc(NC(=O)c2c(F)cccc2F)nc1 [Compound 25, N-(5-(5-ethyl-2-(trifluoromethyl)oxazol-4-yl)pyridin-2-yl)-2,6-difluorobenzamide]
< 600	CCc1oc(C(F)(F)F)nc1-c1ccc(NC(=O)c2ccccc2F)nc1 [Compound 24, N-(5-(5-ethyl-2-(trifluoromethyl)oxazol-4-yl)pyridin-2-yl)-2-fluorobenzamide]

The remaining lines, values behind:

SMILES	IC50 [nM]
Cc1ccccc1C(=O)Nc1ccc(-c2nc(C(F)(F)F)oc2C)cn1 [Compound 15]	< 600
Cc1oc(C(F)(F)F)nc1-c1ccc(NC(=O)c2c(F)cccc2F)nc1 [Compound 14, 2,6-difluoro-N-(5-(5-methyl-2-(trifluoromethyl)oxazol-4-yl)pyridin-2-yl)benzamide]	< 600
Cc1oc(C(F)(F)F)nc1-c1ccc(NC(=O)c2ccccc2F)nc1 [Compound 16]	< 600

Same assay, conditions: Rattus norvegicus, thapsigargin, Upslope of fluo-4 signal, Table iv, read-out: RBL-2H3 (IC50, μmol)

IC50 [nM]	SMILES
< 600	Cc1cccc(F)c1C(=O)Nc1ccc(-c2cc(-c3ccccc3F)nn2C)s1 [Compound 23]
< 600	Cn1nc(-c2ccccn2)cc1-c1ccc(NC(=O)c2c(F)cccc2F)s1 [Compound 28, 2,6-difluoro-N-(5-(1-methyl-3-(pyridin-2-yl)-1H-pyrazol-5-yl)thiophen-2-yl)benzamide]
< 600	Cn1nc(-c2ccccn2)cc1-c1ccc(NC(=O)c2c(F)cc(F)cc2F)s1 [Compound 27, 2,4,6-trifluoro-N-(5-(1-methyl-3-(pyridin-2-yl)-1H-pyrazol-5-yl)thiophen-2-yl)benzamide]

The remaining lines, values behind:

SMILES	IC50 [nM]
Cn1nc(-c2nccs2)cc1-c1ccc(NC(=O)c2ccc(F)cc2F)s1 [Compound 7, (2,4-difluorophenyl)-N-[5-[1-methyl-3-(1,3-thiazol-2-yl)pyrazol-5-yl](2-thienyl)] carboxamide]	< 600
Cn1nc(-c2nccs2)cc1-c1ccc(NC(=O)c2c(F)cc(F)cc2F)s1 [Compound 10, (2,4,6-trifluorophenyl)-N-[5-[1-methyl-3-(1,3-thiazol-2-yl)pyrazol-5-yl](2-thienyl)] carboxamide]	< 600
CCn1nc(-c2nccs2)cc1-c1ccc(NC(=O)c2c(F)cccc2F)s1 [Compound 15]	< 600
CCn1nc(-c2nccs2)cc1-c1ccc(NC(=O)c2c(F)cc(F)cc2F)s1 [Compound 16]	< 600
Cn1nc(-c2nccs2)cc1-c1ccc(NC(=O)c2c(F)cccc2F)s1 [Compound 6, (2,6-difluorophenyl)-N-[5-[1-methyl-3-(1,3-thiazol-2-yl)pyrazol-5-yl](2-thienyl)] carboxamide]	< 600
